According to patent US20230082555A1, “Composition for Medium” (Kataoka Corporation, priority 2019, published 2023):

Test system: human fibroblasts
Assay: Presence or absence of fatty acids in serum-free induction medium, Ucp1 and Ckmt1 by QRT-PCR (Test Example E)
Type: cell-based
Settings: brown adipocytes induced from fibroblasts; FIGS. 8 and 9
Procedure: After the human fibroblasts reached 80% to 90% confluency, the medium in the dish was replaced with SFBAM which is serum-free or SFBAM in which albumin and fatty acid components were changed to the combinations shown in Table 10 of the compounds shown in Table 9, both of which contain all the compounds shown in Table 3, and the human fibroblasts were cultured in said respective media for three weeks (Examples 11 to 14). The medium was changed every three days. Thereafter, the expression amounts of marker genes, Ucp1 and Ckmt1, specific for brown adipose tissue were quantified by QRT-PCR. Symbol 1 (control) in the figures represents the result in SFBAM without the compounds shown in Table 3 necessary for induction into brown adipocytes.

fatty acid-unbound albumin: Fatty acid-free albumin, in which a fatty acid is removed from an albumin (017-15146, FUJIFILM Wako)
Expression levels of Ucp1 genes versus induction with fatty acid-bound albumin: much higher
